Earlier results in US9333175B2, “Controlled release levetiracetam formulations and methods for producing the same” (Mylan Inc., priority 2010, dated 2016).

Conditions: A. J. Gower et al., Eur. J. Pharmacol., 222, 1992, 193-203

In the case of `CC[C@H](C(N)=O)N1CCCC1=O` [(R)-(+)-alpha-ethyl-2-oxo-1-pyrrolidine acetamide], the “activity in the treatment of epilepsy” value is given as “completely lacks activity”.
In the case of `CC[C@@H](C(N)=O)N1CCCC1=O` [Levetiracetam, (S)-(−)-alpha-ethyl-2-oxo-1-pyrrolidine acetamide], the “activity in the treatment of epilepsy” value is listed as “effective in the treatment of epilepsy”.
